Biological target: CDK2 (UniProt P24941)
Test: Enzyme Assay

Row | Compound | IC50
1 | Cc1c(C(=O)NCc2ccc(F)cc2)sc2c(NC(=O)c3ccc(F)cc3)n[nH]c12 | < 500 nM
2 | CCC(NC(=O)c1cc2[nH]nc(NC(=O)c3ccc(N4CCOCC4)cc3)c2o1)c1ccccc1 (configuration not stated) | < 500 nM
3 | CN1CCN(C(=O)c2cc3[nH]nc(NC(=O)c4ccc(F)cc4)c3o2)CC1 | < 500 nM
4 | CCCCNC(=O)c1cc2[nH]nc(NC(=O)CCCC)c2s1 | < 500 nM
5 | CN1CCN(C(=O)c2cc3[nH]nc(NC(=O)c4ccc(F)cc4)c3s2)CC1 | < 500 nM
6 | CCC(NC(=O)c1cc2[nH]nc(NC(=O)c3ccc(N4CCN(C)CC4)cc3)c2o1)c1ccccc1 (configuration not stated) | < 500 nM
7 | CCCCNC(=O)c1cc2[nH]nc(NC(=O)c3cccs3)c2s1 | < 500 nM
8 | CCCCNC(=O)c1cc2[nH]nc(NC(=O)C3CC3)c2s1 | < 500 nM
9 | CCNC(=O)c1cc2[nH]nc(NC(=O)c3ccc(N4CCN(C)CC4)cc3)c2s1 | < 500 nM
10 | C[C@@H](NC(=O)c1cc2c(NC(=O)c3ccc(N4CCN(C)CC4)cc3)n[nH]c2s1)c1ccccc1 | < 500 nM
11 | O=C(Nc1n[nH]c2cc(C(=O)NCc3ccccc3)sc12)c1cc(F)cc(F)c1 | < 500 nM
12 | O=C(Nc1n[nH]c2cc(C(=O)O)sc12)c1ccc(N2CCOCC2)cc1 | < 500 nM
13 | O=C(Nc1n[nH]c2cc(C(=O)O)oc12)c1ccc(N2CCOCC2)cc1 | < 500 nM
14 | Cc1c(C(=O)NCc2ccc(F)cc2)sc2c(NC(=O)c3cccs3)n[nH]c12 | < 500 nM
15 | CN1CCN(c2ccc(C(=O)Nc3n[nH]c4cc(C(=O)NCc5ccoc5)sc34)cc2)CC1 | < 500 nM
16 | C=CCNC(=O)c1cc2[nH]nc(NC(=O)NCc3ccccc3)c2s1 | < 500 nM
17 | CN1CCN(c2ccc(C(=O)Nc3n[nH]c4cc(C(=O)NCc5ccco5)sc34)cc2)CC1 | < 500 nM
